These results are taken from patent US9783532B2, “Molecules having certain pesticidal utilities, and intermediates, compositions, and processes related thereto” (Dow AgroSciences LLC, priority 2013, dated 2017).

Assay [1] deals with Beet Armyworm (Spodoptera exigua) ("BAW"). Briefly: Bioassay on beet armyworm (BAW), 128-well diet tray assay. In kind it is in vivo. The note with it: Table ABC (FB), activity rating class, read-out: BAW (Biological Results, Insect species). The protocol:
(§1) Certain molecules disclosed in this document were tested against BAW and CEW using procedures described in the following examples. In the reporting of the results, the “BAW & CL Rating Table” was used (See Table Section). BIOASSAYS ON BAW
Bioassays on BAW were conducted using a 128-well diet tray assay. one to five second instar BAW larvae were placed in each well (3 mL) of the diet tray that had been previously filled with 1 mL of artificial diet to which 50 μg/cm^2 of the test compound (dissolved in 50 μL of 90:10 acetone-water mixture) had been applied (to each of eight wells) and then allowed to dry. Trays were covered with a clear self-adhesive cover and held at 25° C., 14:10 light-dark for five to seven days. Percent mortality was recorded for the larvae in each well; activity in the eight wells was then averaged. The results are indicated in the table entitled “Table ABC: Biological Results” (See Table Section).

For assay [2], the system named is Cabbage Looper (Trichoplusia ni) ("CL"). The assay can be described thus: Bioassay on cabbage looper (CL), 128-well diet tray assay. It is filed as in vivo. The following applies: Table ABC (FB), activity rating class, read-out: CL (Biological Results, Insect species). The protocol:
as §1
Bioassays on CL were conducted using a 128-well diet tray assay. one to five second instar CL larvae were placed in each well (3 mL) of the diet tray that had been previously filled with 1 mL of artificial diet to which 50 μg/cm^2 of the test compound (dissolved in 50 μL of 90:10 acetone-water mixture) had been applied (to each of eight wells) and then allowed to dry. Trays were covered with a clear self-adhesive cover and held at 25° C., 14:10 light-dark for five to seven days. Percent mortality was recorded for the larvae in each well; activity in the eight wells was then averaged. The results are indicated in the table entitled “Table ABC: Biological Results” (See Table Section).

As to `CCn1s/c(=N\C(=O)NCCc2ccc(-c3ncn(-c4ccc(OC(F)(F)F)cc4)n3)cc2)n(-c2ccc(F)cc2C(C)C)c1=O` [FB13, (Z)-1-(2-ethyl-4-(4-fluoro-2-isopropylphenyl)-3-oxo-1,2,4-thiadiazolidin-5-ylidene)-3-(4-(1-(4-(trifluoromethoxy)phenyl)-1H-1,2,4-triazol-3-yl)phenethyl)urea], the pest or weed control at 50 µg/cm2 was in the range of 0 to 50% in assay [1] and 50 to 100% in assay [2].
For `CCn1s/c(=N\C(=O)NCCc2ccc(-c3ncn(-c4ccc(OC(F)(F)F)cc4)n3)cc2)n(-c2ccccc2C(C)C)c1=O` [FB14] the same measures were 50 to 100% and 50 to 100%.
For `Cc1ccc(C(C)C)c(N2C(=O)CS/C2=N\C(=O)NC2CCCCC2c2ccc(-c3ncn(-c4ccc(OC(F)(F)F)cc4)n3)cc2)c1` (centres unmarked) [FB15, (Z)-1-(3-(2-isopropyl-5-methylphenyl)-4-oxothiazolidin-2-ylidene)-3-(2-(4-(1-(4-(trifluoromethoxy)phenyl)-1H-1,2,4-triazol-3-yl)phenyl)cyclohexyl)urea] the same measures were 50 to 100% and 50 to 100%.
On the same counts, the results for `Cc1ccccc1NC(=S)NC(=O)NCc1cccc(-c2ncn(-c3ccc(OC(F)(F)F)cc3)n2)c1` [FB18, 1-(o-tolylcarbamothioyl)-3-[[3-[1-[4-(trifluoromethoxy)phenyl]-1H-1,2,4-triazol-3-yl]phenyl]methyl]urea] are 50 to 100% and 50 to 100%.
In the case of `COc1ccc(NC(=S)NC(=O)NCc2cccc(-c3ncn(-c4ccc(OC(F)(F)F)cc4)n3)c2)c(C)c1` [FB19, 1-[(4-methoxy-2-methyl-phenyl)carbamothioyl]-3-[[3-[1-[4-(trifluoromethoxy)phenyl]-1H-1,2,4-triazol-3-yl]phenyl]methyl]urea], the pest or weed control at 50 µg/cm2 in assay [1] and in assay [2] was 50 to 100% each time.
For the compound `CCc1ccccc1NC(=S)NC(=O)NCc1cccc(-c2ncn(-c3ccc(OC(F)(F)F)cc3)n2)c1` [FB20, 1-[(2-ethylphenyl)carbamothioyl]-3-[[3-[1-[4-(trifluoromethoxy)phenyl]-1H-1,2,4-triazol-3-yl]phenyl]methyl]urea], the pest or weed control at 50 µg/cm2 in assay [1] and in assay [2] was 50 to 100% each time.
Take `CCc1cccc(C)c1NC(=S)NC(=O)NCc1cccc(-c2ncn(-c3ccc(OC(F)(F)F)cc3)n2)c1` [FB21, 1-[(2-ethyl-6-methyl-phenyl)carbamothioyl]-3-[[3-[1-[4-(trifluoromethoxy)phenyl]-1H-1,2,4-triazol-3-yl]phenyl]methyl]urea]: the pest or weed control at 50 µg/cm2 in assay [1] and in assay [2] was 50 to 100% in each case.
For the compound `CC(C)c1ccccc1NC(=S)NC(=O)NCc1cccc(-c2ncn(-c3ccc(OC(F)(F)F)cc3)n2)c1` [FB22, 1-[(2-isopropylphenyl)carbamothioyl]-3-[[3-[1-[4-(trifluoromethoxy)phenyl]-1H-1,2,4-triazol-3-yl]phenyl]methyl]urea], the pest or weed control at 50 µg/cm2 in assay [1] and in assay [2] was 50 to 100% throughout.
Take `Cc1ccc(NC(=S)NC(=O)NCc2cccc(-c3ncn(-c4ccc(OC(F)(F)F)cc4)n3)c2)c(C(C)C)c1` [FB23, 1-[(2-isopropyl-4-methyl-phenyl)carbamothioyl]-3-[[3-[1-[4-(trifluoromethoxy)phenyl]-1H-1,2,4-triazol-3-yl]phenyl]methyl]urea]: the pest or weed control at 50 µg/cm2 in assay [1] and in assay [2] was 50 to 100% each time.
Regarding `CC(C)c1cc(F)ccc1NC(=S)NC(=O)NCc1cccc(-c2ncn(-c3ccc(OC(F)(F)F)cc3)n2)c1` [FB24, 1-[(4-fluoro-2-isopropyl-phenyl)carbamothioyl]-3-[[3-[1-[4-(trifluoromethoxy)phenyl]-1H-1,2,4-triazol-3-yl]phenyl]methyl]urea], the pest or weed control at 50 µg/cm2 in assay [1] and in assay [2] was 50 to 100% throughout.
As to `Cc1ccc(C(C)C)c(NC(=S)NC(=O)NCc2cccc(-c3ncn(-c4ccc(OC(F)(F)F)cc4)n3)c2)c1` [FB25, 1-[(2-isopropyl-5-methyl-phenyl)carbamothioyl]-3-[[3-[1-[4-(trifluoromethoxy)phenyl]-1H-1,2,4-triazol-3-yl]phenyl]methyl]urea], the pest or weed control at 50 µg/cm2 in assay [1] and in assay [2] was 50 to 100% each time.
As for `CC(C)c1ccc(Cl)cc1NC(=S)NC(=O)NCc1cccc(-c2ncn(-c3ccc(OC(F)(F)F)cc3)n2)c1` [FB26, 1-[(5-chloro-2-isopropyl-phenyl)carbamothioyl]-3-[[3-[1-[4-(trifluoromethoxy)phenyl]-1H-1,2,4-triazol-3-yl]phenyl]methyl]urea], the pest or weed control at 50 µg/cm2 in assay [1] and in assay [2] was 50 to 100% each time.
For `Cc1ccccc1N1C(=O)CS/C1=N\C(=O)NCc1cccc(-c2ncn(-c3ccc(OC(F)(F)F)cc3)n2)c1` [FB27, (Z)-1-(4-oxo-3-(o-tolyl)thiazolidin-2-ylidene)-3-(3-(1-(4-(trifluoromethoxy)phenyl)-1H-1,2,4-triazol-3-yl)benzyl)urea], the pest or weed control at 50 µg/cm2 in assay [1] and in assay [2] was 50 to 100% in each case.
On to `COc1ccc(N2C(=O)CS/C2=N\C(=O)NCc2cccc(-c3ncn(-c4ccc(OC(F)(F)F)cc4)n3)c2)c(C)c1` [FB28, (Z)-1-(3-(4-methoxy-2-methylphenyl)-4-oxothiazolidin-2-ylidene)-3-(3-(1-(4-(trifluoromethoxy)phenyl)-1H-1,2,4-triazol-3-yl)benzyl)urea], for which the pest or weed control at 50 µg/cm2 in assay [1] and in assay [2] was 50 to 100% in each case.
Take `CCc1ccccc1N1C(=O)CS/C1=N\C(=O)NCc1cccc(-c2ncn(-c3ccc(OC(F)(F)F)cc3)n2)c1` [FB29, (Z)-1-(3-(2-ethylphenyl)-4-oxothiazolidin-2-ylidene)-3-(3-(1-(4-(trifluoromethoxy)phenyl)-1H-1,2,4-triazol-3-yl)benzyl)urea]: the pest or weed control at 50 µg/cm2 in assay [1] and in assay [2] was 50 to 100% in each case.
Consider `CCc1cccc(C)c1N1C(=O)CS/C1=N\C(=O)NCc1cccc(-c2ncn(-c3ccc(OC(F)(F)F)cc3)n2)c1` [FB30, (Z)-1-(3-(2-ethyl-6-methylphenyl)-4-oxothiazolidin-2-ylidene)-3-(3-(1-(4-(trifluoromethoxy)phenyl)-1H-1,2,4-triazol-3-yl)benzyl)urea], for which the pest or weed control at 50 µg/cm2 in assay [1] and in assay [2] was 50 to 100% in each case.
For `CC(C)c1ccccc1N1C(=O)CS/C1=N\C(=O)NCc1cccc(-c2ncn(-c3ccc(OC(F)(F)F)cc3)n2)c1` [FB31, (Z)-1-(3-(2-isopropylphenyl)-4-oxothiazolidin-2-ylidene)-3-(3-(1-(4-(trifluoromethoxy)phenyl)-1H-1,2,4-triazol-3-yl)benzyl)urea], the pest or weed control at 50 µg/cm2 in assay [1] and in assay [2] was 50 to 100% throughout.
Turning to `Cc1ccc(N2C(=O)CS/C2=N\C(=O)NCc2cccc(-c3ncn(-c4ccc(OC(F)(F)F)cc4)n3)c2)c(C(C)C)c1` [FB32, (Z)-1-(3-(2-isopropyl-4-methylphenyl)-4-oxothiazolidin-2-ylidene)-3-(3-(1-(4-(trifluoromethoxy)phenyl)-1H-1,2,4-triazol-3-yl)benzyl)urea], the pest or weed control at 50 µg/cm2 in assay [1] and in assay [2] was 50 to 100% each time.
Turning to `CC(C)c1cc(F)ccc1N1C(=O)CS/C1=N\C(=O)NCc1cccc(-c2ncn(-c3ccc(OC(F)(F)F)cc3)n2)c1` [FB33, (Z)-1-(3-(4-fluoro-2-isopropylphenyl)-4-oxothiazolidin-2-ylidene)-3-(3-(1-(4-(trifluoromethoxy)phenyl)-1H-1,2,4-triazol-3-yl)benzyl)urea], the pest or weed control at 50 µg/cm2 in assay [1] and in assay [2] was 50 to 100% in each case.
On to `CC(C)c1ccc(Cl)cc1N1C(=O)CS/C1=N\C(=O)NCc1cccc(-c2ncn(-c3ccc(OC(F)(F)F)cc3)n2)c1` [FB35, (Z)-1-(3-(5-chloro-2-isopropylphenyl)-4-oxothiazolidin-2-ylidene)-3-(3-(1-(4-(trifluoromethoxy)phenyl)-1H-1,2,4-triazol-3-yl)benzyl)urea], for which the pest or weed control at 50 µg/cm2 in assay [1] and in assay [2] was 50 to 100% throughout.
Turning to `COc1ccc(NC(=S)NC(=O)NCCCCc2cccc(-c3ncn(-c4ccc(OC(F)(F)F)cc4)n3)c2)c(C)c1` [FB36, 1-[(4-methoxy-2-methyl-phenyl)carbamothioyl]-3-[4-[3-[1-[4-(trifluoromethoxy)phenyl]-1H-1,2,4-triazol-3-yl]phenyl]butyl]urea], the results for the pest or weed control at 50 µg/cm2 in assay [1] and in assay [2] were 0 to 50% and 50 to 100%, respectively.
On the same counts, the results for `CC(C)c1ccc(Cl)cc1NC(=S)NC(=O)NCCCCc1cccc(-c2ncn(-c3ccc(OC(F)(F)F)cc3)n2)c1` [FB37, 1-[(5-chloro-2-isopropyl-phenyl)carbamothioyl]-3-[4-[3-[1-[4-(trifluoromethoxy)phenyl]-1H-1,2,4-triazol-3-yl]phenyl]butyl]urea] are 0 to 50% and 0 to 50%.
